# Several values for one entry are separate records, joined by “and”; a condition that tells them apart may be missing. Equal entries are not always repeated.
# Legend:
# [1] = test system: Thoroughbred racehorses with excessive mucus production; assay: Example 1: inhaled gaseous NO in Thoroughbred racehorses with excessive mucus, endoscopic mucus scoring; type: in vivo, equine; design: key to Mucus status: NG = No change in status; settings: for Side effects: equine study, inhaled administration
# Text: Six (6) Thoroughbred racehorses at a major racing jurisdiction were quarantined for two weeks, and each horse had evidence of excessive mucus production as surveyed by clinical presentation and by endoscopic exam. The horses were isolated from each other and were being medicated daily in series with several broad-spectrum antimicrobials routinely employed for respiratory infections in Equids. The results before the administration with gaseous NO had been unremarkable. […] All six horses were included in the study using gaseous NO.
# The horses were brought individually to the veterinary hospital barn for further evaluation over the course of five days. An fiberoptic endoscope was passed to the level of the bifurcation of the trachea (carina-airway) with images recorded on videotape. A scoring system was used to indicate the presence or absence of mucus, as well as its severity, if present. This scoring system has been described by Dixon et. al., “Equine Pulmonary Disease: Ancillary Diagnostic Findings,” Equine Vet. Journal 27, 428-435, 1995, herein incorporated by reference in its entirety. A score of zero indicates the absence of mucus, while a score of 1 to 5 indicates increasing amounts of mucus observed endoscopically in the trachea. The attending Veterinarian conducting the examination did the scoring. All of the six horses scored 4 or higher before the initiation of the treatments.
# Treatment intervention of inhaled gaseous Nitric Oxide was administered to all six horses during a five-day period. Five of the horses (#2-#6) received 100 breaths of 10,000 ppm resulting in, based on pulmonary mechanics, a lung concentration of approximately 160 ppm. Horse #1 received 100 breaths of 5000 ppm resulting in 80 ppm on Day #1 and a second administration of 100 breaths of 10,000 ppm on Day #5. Horse #5 received 100 breaths of 10,000 ppm on Day #3 and a second administration of 100 breaths of 10,000 ppm on Day #4.
# An outline of the treatment results is provided below in Table No. 1 (with scores when available). […] On a day where a measurement and a treatment occur, such as Day #4 for Horse #5, the measurement was taken before the administration of the second dosage.
# [2] = test system: Standardbred horses with excessive mucus accumulation; assay: Example 2: inhalant Nitric Oxide gas in Standardbred horses with excessive mucus accumulation, post race endoscopic mucus score; type: in vivo, equine; design: key to Decrease in Mucus Score: Dixon score: 0 = no mucus, 1-5 = increasing mucus; pre minus post
# Text: Twenty-seven Standardbred horses were referred to this study with a history of poor performance and with evidence of excessive mucus accumulation as surveyed by endoscopic exam. This was a single site population study and the subjects served as their own control.
# Horses were examined pretreatment by videoendocscopy on a minimum of two consecutive occasions post race, one week or longer between scopings, to document the degree and persistence of mucus residence. The endoscope was passed to the level of the bifurcation of the trachea (carina) with images logged on a video recorder. The Dixon et al. scoring system was used to indicate the presence or absence of mucus, as well as its severity, if present. Zero indicates absence of mucus, and 1 to 5 indicating increasing amounts of mucus observed endoscopically in the trachea. Scoring was done by the veterinarian conducting the examination, then later by another “blinded” individual using the recorded examination.
# Treatment via a metered delivery device was provided that included a source of nitric oxide from a pressurized gas cylinder and a delivery interface with the subject's nare. The Nitric Oxide delivery device is enabled by a microprocessor-based computer (Pulmonox Medical Inc, Tofield, Alberta, Canada) wherein a proportionate flow rate of Nitric Oxide gas is delivered based on the horse's tidal volume/minute ventilation with a resulting airway/pulmonary concentration of 160-200 ppm.
# Upon enrollment in the study a candidate for the treatment intervention was administered 100 breathes of NO gas as previously described for a minimum of three days. A follow up endoscopic exam on the next available immediate post race was performed and a mucus score assigned. Post race endoscopic exams were continued for several events as a measurable outcome. Depending on the results (i.e. no change or a graded increase in mucus scores) multiple treatment cycles were continued and the results recorded via post race endoscopic exam over the next of several weeks.
# bovine = assay: Preliminary experiments with bovine, mucus hydrolyzed and excreted from the nares; type: in vivo
# Text: Thus, the Applicants believe that inhaled gaseous NO as an effective treatment to excess mucus accumulation in the airways of mammals.
# healthy bovine = assay: Preliminary experiments with healthy bovine, prevention of mucus accumulation; type: in vivo; settings: inhaled
# Text: Additionally, inhaled nitric oxide containing gas may act as a preventative measure in the accumulation of mucus in the airways. […] Such a risk may be associated with recent infection and/or contact with other infected mammals. […] The delivery of inhaled nitric oxide containing gas may be administered to these risk mammals in order to prevent mucus accumulation in the airway. Effective therapeutic amounts may also refer to an amount sufficient to break down the viscoelastic mucus and increase mucociliary transport in the mammal's airway and to increase MMC in the mammal. Therefore, treating mucus accumulation in the airways of a mammal comprises reducing mucus accumulation, preventing mucus accumulation, reducing mucociliary dyskinesia, and/or preventing mucociliary dyskinesia.
structure (smiles),measurement,setting,value
"[N]=O [gNO, Nitric Oxide]","Mucus score (endoscopic, 0-5)","[1]; Horse #1, Day #2, Tx 100 breaths at 5000 ppm on Day #1",Clear (0)
same,"Return of the previous amount of mucus (amount before administration of gNO), not scored","[1]; Horse #1, Day #3, Tx 100 breaths at 5000 ppm on Day #1",25% rtn.
same,Mucus status,"[1]; Horse #1, Day #4, Tx 100 breaths at 5000 ppm on Day #1",NG
same,Mucus status,"[1]; Horse #1, Day #5, before second Tx (10,000 ppm), Tx 5000 ppm on Day #1","NG, Tx 10k"
same,"Mucus score (endoscopic, 0-5)","[1]; Horse #1, Day #6, Tx 5000 ppm Day #1 and Tx 100 breaths at 10,000 ppm Day #5",Trace (1)
same,"Mucus score (endoscopic, 0-5)","[1]; Horse #2, Day #2, Tx 100 breaths at 10,000 ppm on Day #1",Clear (0)
same,"Return of the previous amount of mucus (amount before administration of gNO), not scored","[1]; Horse #2, Day #3, Tx 100 breaths at 10,000 ppm on Day #1",25% rtn.
same,Mucus status,"[1]; Horse #2, Day #4, Tx 100 breaths at 10,000 ppm on Day #1",NG
same,Mucus status,"[1]; Horse #2, Day #5, Tx 100 breaths at 10,000 ppm on Day #1",NG
same,"Mucus score (endoscopic, 0-5)","[1]; Horse #3, Day #3, Tx 100 breaths at 10,000 ppm on Day #2",Clear (0)
same,Mucus status,"[1]; Horse #3, Day #4, Tx 100 breaths at 10,000 ppm on Day #2",NG
same,"Mucus score (endoscopic, 0-5)","[1]; Horse #3, Day #5, Tx 100 breaths at 10,000 ppm on Day #2",Trace (2)
same,"Mucus score (endoscopic, 0-5)","[1]; Horse #4, Day #4, Tx 100 breaths at 10,000 ppm on Day #3",Clear (0)
same,"Return of the previous amount of mucus (amount before administration of gNO), not scored","[1]; Horse #4, Day #5, Tx 100 breaths at 10,000 ppm on Day #3",25% rtn.
same,"Mucus score (endoscopic, 0-5)","[1]; Horse #5, Day #4, before second dosage, Tx 100 breaths at 10,000 ppm on Day #3","Clear (0),"
same,"Mucus score (endoscopic, 0-5)","[1]; Horse #5, Day #5, Tx 100 breaths at 10,000 ppm on Day #3 and Day #4",Trace (2)
same,"Mucus score (endoscopic, 0-5)","[1]; Horse #5, Day #6, Tx 100 breaths at 10,000 ppm on Day #3 and Day #4",Trace (1)
same,"Mucus score (endoscopic, 0-5)","[1]; Horse #6, Day #6, Tx 100 breaths at 10,000 ppm on Day #5",Trace (2)
same,Reduction in mucus from Day #1,"[1]; Horses #2 and #4 (25% of the mucus returned, not scored)",75%
same,Side effects,[1],"did not result in any irritation, inflammation or abnormal side effects"
same,Side effects,[1]; listed as inhaled NO,no untoward side effects were observed
same,Observation immediately following administration,"[1]; horses, inhaled",non-viscous liquids started to flow out of the nares of the horses
same,Time until non-viscous liquids start to flow out of the nares,"[1]; six equine with excessive mucus accumulation, after inhalation",10 to 30 min
same,Reduction of mucus,"[1]; six equine, all subjects",reductions of mucus to trace levels in all subjects
same,Response to additional treatment cycles,[2]; horses with recurrence to scores of 2 or more in the weeks following the first treatment,repeatable marked reduction in mucus scores following treatment
same,Post-Mucus Score (after administering gNO),"[2]; individual horses 1-27, 100 breaths for a minimum of three days, airway concentration 160-200 ppm, post race endoscopy, Dixon scale 0-5",2 (6×) and 0 (7×) and 3 (2×) and 4 (2×) and 1 (4×) and 1.5 (2×) and 2.5 (4×)
same,Decrease in Mucus Score,"[2]; individual horses 1-27, pre-score minus post-score, 100 breaths for a minimum of three days, 160-200 ppm",.5 (7×) and 1 (5×) and 2.5 (2×) and 3 (3×) and 3.5 (2×) and 2 (5×) and 1.5 and 0
same,Number of horses with decrease in score by at least 0.5,"[2]; of twenty-seven, Dixon et al. scale",Twenty five
same,Number of horses with score reduction of at least 1,"[2]; of twenty-seven, after a single treatment cycle",Eighteen
same,Number of subjects with decrease in mucus score from 2 to 3.5,"[2]; of twenty-seven, single or multiple treatments, transient reduction",Twelve
same,Improvement in mucus scores post treatment,[2]; twenty-seven horses enrolled,all but two showed significant improvement in their mucus scores
same,Time until mucus is hydrolyzed and excreted from the nares,bovine,10 to 30 min
same,Prevention of mucus accumulation,healthy bovine,results in the prevention of mucus accumulation
